Results from US20120129833A1, “CYCLIC KETOENOLS FOR THERAPY” (BAYER PHARMA AKTIENGESELLSCHAFT, priority 2010, published 2012).

Experiments:
[1] = target: T1, recombinant human ACC1 (acetyl-CoA carboxylase 1) (Homo sapiens, UniProt Q13085); assay: Human ACC1 enzyme assay (HTRF ADP detection); type: biochemical; details: 50 μM ATP, 20 μM acetyl-CoA, 15 min pre-incubation, 20 min at 22° C.; read-out: ACC 1 IC50;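 also: ADP by-product quantified by competitive HTRF immunoassay with europium cryptate anti-ADP antibody and d2-labelled ADP, read after 1 h binding at 22 °C, enzyme near 2.5 ng/µl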
T1 construct: NM_198834, amino acids 39—end; FLAG (C); made in house; host or cells: baculovirus-transfected insect cells (Hi5)
Procedure: The basic principle of the assay is the measurement of adenosine diphosphate (ADP), which is formed as a by-product, by means of an HTRF®-based competitive immunoassay (HTRF=Homogeneous Time Resolved Fluorescence).
(§1) The amount of complex of d2-labelled ADP and europium cryptate-labelled anti-ADP antibody was then determined by measuring the resonance energy transfer of europium cryptate to d2.

[2] = target: T2, ACC2 (acetyl-CoA carboxylase 2) (Homo sapiens, UniProt O00763); assay: Human ACC2 enzyme assay (HTRF ADP detection); type: biochemical; details: 20 μM acetyl-CoA, 15 min pre-incubation, 20 min at 22° C.; read-out: ACC 2 IC50
T2 construct: catalogue no; 50201, amino acids 39—end, expressed in baculovirus-transfected Sf9 insect cells; His (C); purchased BPS Bioscience (San Diego, Calif.) 50201; host or cells: baculovirus-transfected Sf9 insect cells
T2 sequence (O00763 39-2458 limits assumed): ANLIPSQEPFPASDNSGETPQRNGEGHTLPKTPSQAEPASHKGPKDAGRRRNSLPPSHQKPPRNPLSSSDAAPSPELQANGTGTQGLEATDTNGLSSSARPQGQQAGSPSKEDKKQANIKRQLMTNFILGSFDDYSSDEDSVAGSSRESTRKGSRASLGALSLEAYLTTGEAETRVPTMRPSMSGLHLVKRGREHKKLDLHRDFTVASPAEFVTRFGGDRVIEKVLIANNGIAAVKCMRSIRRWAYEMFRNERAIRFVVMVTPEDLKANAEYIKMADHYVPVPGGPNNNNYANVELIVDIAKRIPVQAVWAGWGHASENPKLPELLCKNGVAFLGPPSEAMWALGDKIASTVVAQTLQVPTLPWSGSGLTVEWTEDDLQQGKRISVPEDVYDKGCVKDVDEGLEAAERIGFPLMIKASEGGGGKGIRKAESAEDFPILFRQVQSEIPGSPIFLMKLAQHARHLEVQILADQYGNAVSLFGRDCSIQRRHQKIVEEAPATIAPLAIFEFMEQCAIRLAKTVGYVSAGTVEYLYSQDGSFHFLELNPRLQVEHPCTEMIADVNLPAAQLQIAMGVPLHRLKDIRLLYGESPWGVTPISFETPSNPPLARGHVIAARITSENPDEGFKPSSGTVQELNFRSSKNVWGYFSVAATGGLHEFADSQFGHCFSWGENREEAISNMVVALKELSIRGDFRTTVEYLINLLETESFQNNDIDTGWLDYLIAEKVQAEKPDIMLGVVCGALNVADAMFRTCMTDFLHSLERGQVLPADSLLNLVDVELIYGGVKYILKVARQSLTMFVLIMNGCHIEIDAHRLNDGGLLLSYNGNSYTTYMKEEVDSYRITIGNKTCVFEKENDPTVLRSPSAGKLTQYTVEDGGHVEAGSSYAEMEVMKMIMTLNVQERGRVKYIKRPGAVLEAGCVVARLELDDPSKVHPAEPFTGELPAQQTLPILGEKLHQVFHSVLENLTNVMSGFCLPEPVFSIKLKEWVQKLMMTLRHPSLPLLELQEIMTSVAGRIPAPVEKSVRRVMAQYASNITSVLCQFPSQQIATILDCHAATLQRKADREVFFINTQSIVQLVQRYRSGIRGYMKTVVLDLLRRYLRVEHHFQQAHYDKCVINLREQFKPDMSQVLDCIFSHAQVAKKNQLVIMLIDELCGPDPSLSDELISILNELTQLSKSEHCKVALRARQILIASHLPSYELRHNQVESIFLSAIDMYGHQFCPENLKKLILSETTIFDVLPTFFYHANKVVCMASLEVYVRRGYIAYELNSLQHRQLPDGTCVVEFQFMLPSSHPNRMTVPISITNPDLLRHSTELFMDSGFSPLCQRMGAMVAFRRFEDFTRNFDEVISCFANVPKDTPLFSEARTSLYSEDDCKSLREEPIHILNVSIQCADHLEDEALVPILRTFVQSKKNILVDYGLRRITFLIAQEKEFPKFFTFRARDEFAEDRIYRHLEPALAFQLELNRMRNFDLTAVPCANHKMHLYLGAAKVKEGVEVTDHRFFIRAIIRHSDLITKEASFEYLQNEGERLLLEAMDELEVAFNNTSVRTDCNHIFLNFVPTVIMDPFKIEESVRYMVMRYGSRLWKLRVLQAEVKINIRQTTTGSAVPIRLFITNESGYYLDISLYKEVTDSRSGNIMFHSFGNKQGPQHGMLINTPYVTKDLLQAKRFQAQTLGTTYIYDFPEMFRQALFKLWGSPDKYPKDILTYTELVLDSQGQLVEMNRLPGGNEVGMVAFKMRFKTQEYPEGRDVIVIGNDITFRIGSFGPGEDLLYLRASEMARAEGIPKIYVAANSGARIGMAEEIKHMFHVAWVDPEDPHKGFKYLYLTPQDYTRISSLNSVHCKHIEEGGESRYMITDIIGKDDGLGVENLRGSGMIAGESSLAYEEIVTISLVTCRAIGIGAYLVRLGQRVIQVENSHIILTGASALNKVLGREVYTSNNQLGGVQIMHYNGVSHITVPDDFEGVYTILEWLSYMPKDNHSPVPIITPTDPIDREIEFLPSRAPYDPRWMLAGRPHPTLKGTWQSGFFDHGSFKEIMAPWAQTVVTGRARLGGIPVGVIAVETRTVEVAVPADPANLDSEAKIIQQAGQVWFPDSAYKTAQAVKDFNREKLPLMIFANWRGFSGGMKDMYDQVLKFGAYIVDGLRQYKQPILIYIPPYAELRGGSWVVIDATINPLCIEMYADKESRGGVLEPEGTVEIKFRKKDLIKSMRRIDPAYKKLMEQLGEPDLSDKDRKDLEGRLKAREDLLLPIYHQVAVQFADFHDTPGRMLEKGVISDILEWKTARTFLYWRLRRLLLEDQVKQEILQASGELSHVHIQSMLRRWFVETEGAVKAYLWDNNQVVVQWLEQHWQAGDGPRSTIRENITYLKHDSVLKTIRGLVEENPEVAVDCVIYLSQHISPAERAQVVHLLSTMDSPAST
Procedure: The inhibitory activity of the substances of this invention with regard to acetyl-CoA carboxylase 2 (ACC2) was measured using the ACC2 assay described in the paragraphs below. The basic principle of the assay is the measurement of adenosine diphosphate (ADP), which is formed as a by-product, by means of an HTRF®-based competitive immunoassay (HTRF=Homogeneous Time Resolved Fluorescence).
as §1

| SMILES | IC50 [1] | IC50 [2] |
| --- | --- | --- |
| Cc1ccc(-c2ccc(F)cc2)c(C)c1C1C(=O)N2CCCCN2C1=O [Example 8-1, 2-(4′-fluoro-2,4-dimethylbiphenyl-3-yl)tetrahydro-1H-pyrazolo[1,2-a]pyridazine-1,3(2H)-dione] | 2460 nM | > 20000 nM |
| CO[C@H]1CC[C@]2(CC1)NC(=O)C(c1cc(-c3ccc(F)cc3)ccc1Cl)=C2O [Example 1-44, (5s,8s)-3-(4-chloro-4′-fluorobiphenyl-3-yl)-4-hydroxy-8-methoxy-1-azaspiro[4.5]dec-3-en-2-one] | 915 nM | > 20000 nM |
| Cc1ccc(-c2ccc(Cl)cc2)cc1C1=C(O)C(C)(C2CC2)NC1=O (stereo not drawn) [Example 1-86, 3-(4′-chloro-4-methylbiphenyl-3-yl)-5-cyclopropyl-4-hydroxy-5-methyl-1,5-dihydro-2H-pyrrol-2-one] | 541 nM | 3300 nM |
| Cc1ccc(-c2ccc(Cl)cc2)cc1C1C(=O)N(C)OC(C)(C)C1=O (stereo not drawn) [Example 11-1, 4-(4′-chloro-4-methylbiphenyl-3-yl)-2,6,6-trimethyl-1,2-oxazinane-3,5-dione] | 4000 nM | > 20000 nM |
| Cc1cc(C)c(-c2ccc(Cl)cc2)cc1C1=C(O)C(C)OC1=O (stereo not drawn) [Example 2-45, 3-(4′-chloro-4,6-dimethylbiphenyl-3-yl)-4-hydroxy-5-methylfuran-2(5H)-one] | 568 nM | 17000 nM |
| COCC1CCC2(CC1)NC(=O)C(c1cc(-c3ccc(Cl)cc3)ccc1Cl)=C2O (stereo not drawn) [Example 1-54, 3-(4,4′-dichlorobiphenyl-3-yl)-4-hydroxy-8-(methoxymethyl)-1-azaspiro[4.5]dec-3-en-2-one] | 220 nM | 1100 nM |
| Cc1ccc(-c2ccc(C(F)(F)F)cc2)cc1-c1c(O)c2ccc(F)cc2[nH]c1=O [Example 9-10, 7-fluoro-4-hydroxy-3-[4-methyl-4′-(trifluoromethyl)biphenyl-3-yl]quinolin-2(1H)-one] | 1690 nM | > 20000 nM |
| COC1CCC2(CC1)NC(=O)C(c1cc(-c3cc(F)ccc3F)ccc1C)=C2O (stereo not drawn) [Example 1-80, 3-(2′,5′-difluoro-4-methylbiphenyl-3-yl)-4-hydroxy-8-methoxy-1-azaspiro[4.5]dec-3-en-2-one] | 695 nM | > 20000 nM |
| Cc1cc(C)c(-c2ccc(Cl)cc2)cc1C1=C(O)[C@]2(CC[C@@]3(CCCO3)CC2)OC1=O [Example 2-30, (5r,8s)-3-(4′-chloro-4,6-dimethylbiphenyl-3-yl)-4-hydroxy-1,9-dioxadispiro[4.2.4.2]tetradec-3-en-2-one] | 281 nM | 32 nM |
| Cc1ccc(-c2ccc(F)cc2)cc1C1=C(O)C2(CCCCC2)OC1=O [Example 2-21, 3-(4′-fluoro-4-methylbiphenyl-3-yl)-4-hydroxy-1-oxaspiro[4.5]dec-3-en-2-one] | 400 nM | > 20000 nM |
| Cc1ccc(-c2ccc(Cl)cc2)cc1C1=C(O)C(C)N(C(C)C)C1=O (stereo not drawn) [Example 1-19, 3-(4′-chloro-4-methylbiphenyl-3-yl)-4-hydroxy-5-methyl-1-(propan-2-yl)-1,5-dihydro-2H-pyrrol-2-one] | 874 nM | 6960 nM |
| Cc1cc(C)c(-c2ccc(Cl)cc2)c(C)c1C1=C(O)C2(CCCCC2)SC1=O [Example 3-4, 3-(4′-chloro-2,4,6-trimethylbiphenyl-3-yl)-4-hydroxy-1-thiaspiro[4.5]dec-3-en-2-one] | 1310 nM | 228 nM |
| COC1CCC2(CC1)NC(=O)C(c1c(C)cc(OC(F)(F)F)cc1Cl)=C2O (stereo not drawn) [Example C-3, reference compound] | > 20000 nM | > 20000 nM |
| Cc1ccc(-c2ccc(Cl)cc2)cc1C1=C(O)CN(C)C1=O [Example 1-16, 3-(4′-chloro-4-methylbiphenyl-3-yl)-4-hydroxy-1-methyl-1,5-dihydro-2H-pyrrol-2-one] | 329 nM | > 20000 nM |
| COCC1CCCC2(C1)NC(=O)C(c1cc(-c3ccc(Cl)cc3)ccc1Cl)=C2O (stereo not drawn) [Example 1-52, 3-(4,4′-dichlorobiphenyl-3-yl)-4-hydroxy-7-(methoxymethyl)-1-azaspiro[4.5]dec-3-en-2-one] | 1270 nM | > 20000 nM |
| CC[C@]1(OC)CC[C@@]2(CC1)NC(=O)C(c1c(C)ccc(-c3ccc(Cl)cc3)c1C)=C2O [Example 1-88, (5r,8r)-3-(4′-chloro-2,4-dimethylbiphenyl-3-yl)-8-ethyl-4-hydroxy-8-methoxy-1-azaspiro[4.5]dec-3-en-2-one] | 825 nM | 6900 nM |
| COC1CCC2(CC1)SC(=O)C(c1cc(-c3ccc(Cl)cc3)ccc1C)=C2O (stereo not drawn) [Example 3-1, 3-(4′-chloro-4-methylbiphenyl-3-yl)-4-hydroxy-8-methoxy-1-thiaspiro[4.5]dec-3-en-2-one] | 853 nM |  |
| CN1C(=O)C(c2cc(-c3ccc(Cl)cc3)ccc2Cl)C(=O)N1C [Example 8-15, 4-(4,4′-dichlorobiphenyl-3-yl)-1,2-dimethyl-1H-pyrazole-3,5(2H,4H)-dione] | 1970 nM | > 20000 nM |
| CCCC1CCC2(CC1)OC(=O)C(c1cc(-c3ccc(Cl)cc3)ccc1C)=C2O (stereo not drawn) [Example 2-36, 3-(4′-chloro-4-methylbiphenyl-3-yl)-4-hydroxy-8-propyl-1-oxaspiro[4.5]dec-3-en-2-one] |  | 1940 nM |
| COC1CCC2(CC1)NC(=O)C(c1cc(-c3ccc(Cl)c(Cl)c3)ccc1C)=C2O (stereo not drawn) [Example 1-81, 3-(3′,4′-dichloro-4-methylbiphenyl-3-yl)-4-hydroxy-8-methoxy-1-azaspiro[4.5]dec-3-en-2-one] |  | 1410 nM |
| Cc1ccc(-c2ccc(Cl)c(Cl)c2)cc1-c1c(O)c2ccc(Cl)cc2[nH]c1=O [Example 9-7, 7-chloro-3-(3′,4′-dichloro-4-methylbiphenyl-3-yl)-4-hydroxyquinolin-2(1H)-one] |  | 8290 nM |

Further lines, results first:

| IC50 [1] | IC50 [2] | SMILES |
| --- | --- | --- |
| 918 nM | 465 nM | COCCC1CCCC2(C1)NC(=O)C(c1c(C)ccc(-c3ccc(Cl)cc3)c1C)=C2O (stereo not drawn) [Example 1-55, 3-(4′-chloro-2,4-dimethylbiphenyl-3-yl)-4-hydroxy-7-(2-methoxyethyl)-1-azaspiro[4.5]dec-3-en-2-one] |
| 668 nM | 1440 nM | Cc1ccc(-c2ccc(Cl)cc2)cc1C1=C(O)C2(CCC3(CC2)OCC(C)(C)CO3)NC1=O [Example 1-67, 3-(4′-chloro-4-methylbiphenyl-3-yl)-4-hydroxy-11,11-dimethyl-9,13-dioxa-1-azadispiro[4.2.5.2]pentadec-3-en-2-one] |
| 1800 nM | 204 nM | Cc1cc(C)c(-c2ccc(Cl)cc2)c(C)c1C1=C(O)C2(CCCCCC2)OC1=O [Example 2-48, 3-(4′-chloro-2,4,6-trimethylbiphenyl-3-yl)-4-hydroxy-1-oxaspiro[4.6]undec-3-en-2-one] |
| 790 nM | 810 nM | Cc1cc(C)c(-c2ccc(Cl)cc2)cc1C1=C(O)C2(CCCOC2)NC1=O (stereo not drawn) [Example 1-8, 3-(4′-chloro-4,6-dimethylbiphenyl-3-yl)-4-hydroxy-7-oxa-1-azaspiro[4.5]dec-3-en-2-one] |
| 340 nM | 250 nM | Cc1cc(C)c(-c2ccc(Cl)cc2)cc1C1=C(O)C2(CCCCC2)SC1=O [Example 3-3, 3-(4′-chloro-4,6-dimethylbiphenyl-3-yl)-4-hydroxy-1-thiaspiro[4.5]dec-3-en-2-one] |
| 3670 nM | 3710 nM | Cc1cc(C)c(-c2ccc(Cl)cc2)cc1C1=C(O)C(C)(C)CCC1=O [Example 7-4, 2-(4′-chloro-4,6-dimethylbiphenyl-3-yl)-3-hydroxy-4,4-dimethylcyclohex-2-en-1-one] |
| 542 nM | 300 nM | Cc1ccc(-c2ccc(Cl)cc2)c(C)c1C1=C(O)[C@]2(CC[C@H](OCC(F)(F)F)CC2)NC1=O [Example 1-30, (5s,8s)-3-(4′-chloro-2,4-dimethylbiphenyl-3-yl)-4-hydroxy-8-(2,2,2-trifluoroethoxy)-1-azaspiro[4.5]dec-3-en-2-one] |
| 459 nM | 349 nM | CCCC1CCC2(CC1)NC(=O)C(c1cc(-c3ccc(Cl)cc3)ccc1C)=C2O (stereo not drawn) [Example 1-83, 3-(4′-chloro-4-methylbiphenyl-3-yl)-4-hydroxy-8-propyl-1-azaspiro[4.5]dec-3-en-2-one] |
| 663 nM | > 20000 nM | Cc1ccc(-c2ccc(Cl)c(C3=C(O)C4(CCOCC4)NC3=O)c2)cc1F [Example 1-39, 3-(4-chloro-3′-fluoro-4′-methylbiphenyl-3-yl)-4-hydroxy-8-oxa-1-azaspiro[4.5]dec-3-en-2-one] |
| 201 nM | 233 nM | Cc1ccc(-c2ccc(Cl)cc2)cc1C1=C(O)[C@]2(CC[C@H](C)CC2)NC1=O [Example 1-76, 3-(4′-chloro-4-methylbiphenyl-3-yl)-4-hydroxy-8-methyl-1-azaspiro[4.5]dec-3-en-2-one] |
| 455 nM |  | Cc1ccc(-c2ccc(Cl)cc2)cc1C1=C(O)C2(CC2)NC1=O [Example 1-84, 6-(4′-chloro-4-methylbiphenyl-3-yl)-7-hydroxy-4-azaspiro[2.4]hept-6-en-5-one] |
| 969 nM | 695 nM | Cc1ccc(-c2ccc(Cl)cc2)cc1C1=C(O)CN(C2CCCCC2)C1=O [Example 1-22, 3-(4′-chloro-4-methylbiphenyl-3-yl)-1-cyclohexyl-4-hydroxy-1,5-dihydro-2H-pyrrol-2-one] |
| 690 nM |  | Cc1ccc(-c2ccc(Cl)cc2)c(C)c1C1=C(O)C2(CCC3(CC2)OCC(C)O3)NC1=O (stereo not drawn) [Example 1-62, 11-(4′-chloro-2,4-dimethylbiphenyl-3-yl)-12-hydroxy-2-methyl-1,4-dioxa-9-azadispiro[4.2.4.2]tetradec-11-en-10-one] |
| 580 nM |  | Cc1cc(C)c(-c2c(O)c3ccc(Cl)cc3[nH]c2=O)cc1-c1ccc(Cl)cc1 [Example 9-12, 7-chloro-3-(4′-chloro-4,6-dimethylbiphenyl-3-yl)-4-hydroxyquinolin-2(1H)-one] |
